ChEMBL document CHEMBL1201862, “PubChem BioAssay data set” (2004)
Active and inactive are the calls of the source.

Key:
[1] = M. tuberculosis growth inhibition, HTS (AID 449762); assay type: functional
[2] = Luminescence Cell-Based Dose Response HTS to Identify Activators of Luciferase Translation or Activity in H4 […] Cells. [Related pubchem assays: 1829 (Project Summary), 1814 (Primary HTS)]; assay type: functional
[3] = molecular target: T1, RNA-binding protein pos-1 (Caenorhabditis elegans, UniProt G5EF15); test: inhibitors of POS-1/mex-3 RNA binding, dose response, biochemical, fluorescence polarization (AID 1964);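 further: purified POS-1 fused to maltose binding protein made in E. coli; potency of compounds blocking POS-1 binding to fluorescent RNA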
T1 sequence (G5EF15 whole entry): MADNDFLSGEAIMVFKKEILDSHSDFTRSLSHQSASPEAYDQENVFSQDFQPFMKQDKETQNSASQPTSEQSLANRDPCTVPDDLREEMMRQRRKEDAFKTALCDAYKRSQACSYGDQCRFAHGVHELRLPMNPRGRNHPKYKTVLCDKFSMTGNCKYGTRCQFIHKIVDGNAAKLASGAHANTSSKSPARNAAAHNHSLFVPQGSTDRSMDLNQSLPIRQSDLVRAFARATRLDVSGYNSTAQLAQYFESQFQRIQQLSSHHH

[4] = Luminescence Cell-Based Dose Confirmation HTS to Identify Activators of 5'UTR Stem-Loop Driven Alpha-Synuclein mRNA Translation in H4 Neuroglioblastoma Cells. [Related pubchem assays: 1829 (Project Summary), 1814 (Primary HTS)]; assay type: functional
[5] = molecular target: T2, Zinc finger protein mex-5 (Caenorhabditis elegans, UniProt Q9XUB2); test: MEX-5/TCR-2 RNA interaction inhibitors, dose response, biochemical, C. elegans, fluorescence polarization (AID 1960)
T2 sequence (Q9XUB2 whole entry): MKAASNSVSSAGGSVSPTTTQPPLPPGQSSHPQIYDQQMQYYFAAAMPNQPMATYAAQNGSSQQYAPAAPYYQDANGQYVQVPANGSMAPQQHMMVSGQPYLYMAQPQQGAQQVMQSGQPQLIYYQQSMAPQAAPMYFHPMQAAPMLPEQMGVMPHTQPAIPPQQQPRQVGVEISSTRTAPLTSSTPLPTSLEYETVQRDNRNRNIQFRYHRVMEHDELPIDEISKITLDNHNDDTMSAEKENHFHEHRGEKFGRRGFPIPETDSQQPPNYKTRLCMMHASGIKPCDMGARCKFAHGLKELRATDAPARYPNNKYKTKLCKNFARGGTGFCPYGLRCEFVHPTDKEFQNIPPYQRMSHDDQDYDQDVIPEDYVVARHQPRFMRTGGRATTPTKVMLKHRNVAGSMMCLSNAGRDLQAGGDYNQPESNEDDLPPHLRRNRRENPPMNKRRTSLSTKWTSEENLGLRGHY

[6] = molecular target: Heat shock protein HSP 90-alpha (Homo sapiens, UniProt P07900); test: Luminescence-based dose response biochemical high throughput screening assay for inhibitors of the Heat Shock Protein 90 (HSP90). [Related pubchem assays: 1831 (Summary AID.), 1846 (Confirmation screen.), 1789 (Primary screen.)]
[7] = molecular target: T3, Corticotropin-releasing factor receptor 2/Corticotropin-releasing factor-binding protein (Homo sapiens, UniProt P24387+Q13324); test: activators of CRF receptor 2 with binding protein – uHTS hits, confirmation (AID 602473); assay type: functional; details: read-out: EC50_Mean
T3 sequence (Q13324 whole entry): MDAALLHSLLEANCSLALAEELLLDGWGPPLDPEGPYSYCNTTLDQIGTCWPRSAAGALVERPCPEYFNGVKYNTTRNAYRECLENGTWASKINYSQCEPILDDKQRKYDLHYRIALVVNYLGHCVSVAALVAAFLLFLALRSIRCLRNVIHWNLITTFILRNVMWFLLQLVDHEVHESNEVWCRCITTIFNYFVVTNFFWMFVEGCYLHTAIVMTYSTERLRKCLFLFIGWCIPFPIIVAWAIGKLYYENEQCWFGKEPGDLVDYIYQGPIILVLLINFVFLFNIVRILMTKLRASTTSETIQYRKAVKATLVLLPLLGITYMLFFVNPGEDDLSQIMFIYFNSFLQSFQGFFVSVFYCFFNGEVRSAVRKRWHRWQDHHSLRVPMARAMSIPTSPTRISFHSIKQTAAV
T3 sequence (P24387 whole entry): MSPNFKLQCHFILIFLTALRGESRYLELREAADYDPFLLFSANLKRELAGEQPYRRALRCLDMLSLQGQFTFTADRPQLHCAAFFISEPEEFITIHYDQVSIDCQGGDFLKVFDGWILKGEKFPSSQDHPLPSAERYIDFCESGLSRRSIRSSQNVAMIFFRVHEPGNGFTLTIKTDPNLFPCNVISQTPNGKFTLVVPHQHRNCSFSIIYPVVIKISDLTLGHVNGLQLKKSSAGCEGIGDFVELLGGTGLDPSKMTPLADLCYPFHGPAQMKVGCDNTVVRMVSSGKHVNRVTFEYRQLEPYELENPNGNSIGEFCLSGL

H4 = test: Luminescence Cell-Based Dose Response HTS to Identify Activators of 5'UTR Stem-Loop Driven Prion Protein mRNA Translation in H4 Neuroglioblastoma Cells. [Related pubchem assays: 1829 (Project Summary), 1814 (Primary HTS)]; assay type: functional; details: Homo sapiens
HEK293 [8] = test: TNF Induced NF-kB Luciferase in 293-NF-kB-Luc Stable Cells. [Related pubchem assays: 1266, 1299, 1269, 1373, 1292, 1290, 1302, 1371, 1283, 1270, 1295, 1271, 1375, 1294, 1374, 1281, 1293, 1291, 1289, 1280, 465, 1368, 1364, 1282, 1372, 1365, 1369, 1370, 1367, 1366 ]; assay type: functional, cell-based; details: Homo sapiens
HEK293 [9] = test: PMA/Ionomycin induced NF-kB luciferase assay in 293- NF-kB-Luc stable cells. [Related pubchem assays: 1299, 1270, 1295, 1375, 1287, 1281, 1293, 1291, 1289, 1280, 465, 1364, 1282, 1372, 1365, 1370, 1367, 1366, 1269, 1373, 1292, 1290, 1302, 1371, 1283, 1271, 1294, 1374, 1368, 1369 ]; assay type: functional, cell-based; details: Homo sapiens
[10] = molecular target: Luciferin 4-monooxygenase (Photinus pyralis, UniProt P08659); test: In vitro luciferase assay using purified luciferase. [Related pubchem assays: 1299, 1270, 1295, 1375, 1287, 1281, 1293, 1291, 1289, 1280, 465, 1364, 1282, 1372, 1365, 1370, 1367, 1366, 1266, 1373, 1292, 1290, 1302, 1371, 1283, 1271, 1294, 1374, 1368, 1369 ]
Sequence of Luciferin 4-monooxygenase (P08659 whole entry): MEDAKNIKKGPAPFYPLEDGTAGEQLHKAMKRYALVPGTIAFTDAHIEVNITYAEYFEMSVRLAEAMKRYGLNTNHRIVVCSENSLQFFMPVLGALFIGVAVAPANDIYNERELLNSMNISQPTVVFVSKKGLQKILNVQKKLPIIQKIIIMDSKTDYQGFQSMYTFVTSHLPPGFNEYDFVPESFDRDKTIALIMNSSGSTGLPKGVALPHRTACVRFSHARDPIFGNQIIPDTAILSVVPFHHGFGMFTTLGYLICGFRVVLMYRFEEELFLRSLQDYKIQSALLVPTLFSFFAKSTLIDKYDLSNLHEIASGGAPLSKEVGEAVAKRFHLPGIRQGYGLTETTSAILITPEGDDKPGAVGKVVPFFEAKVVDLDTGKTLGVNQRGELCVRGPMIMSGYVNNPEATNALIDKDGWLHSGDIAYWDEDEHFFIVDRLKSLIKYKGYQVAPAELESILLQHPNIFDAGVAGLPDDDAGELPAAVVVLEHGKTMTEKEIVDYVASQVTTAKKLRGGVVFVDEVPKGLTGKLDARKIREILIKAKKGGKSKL

HEK293 [11] = test: Cytotoxicity assay in HEK293 cells. [Related pubchem assays (depositor defined):AID1266, AID1269, AID1270, AID1271, AID1280, AID1281, AID1282, AID1283, AID1287, AID1289, AID1290, AID1291, AID1292, AID1293, AID1294, AID1295, AID1299, AID1302, AID1364, AID1365, AID1366, AID1367, AID1369, AID1370, AID1371, AID1372, AID1373, AID1374, AID1375, AID1384 …; assay type: functional, cell-based; details: Homo sapiens
[12] = Vero cell cytotoxicity, dose response, cytotoxicity control for Vif-APOBEC3G degradation inhibitor project, Vero cells (AID 1117358); assay type: functional; details: Human immunodeficiency virus 1, Vero
H9c2 = test: cells; assay type: functional, cell-based; details: Rattus norvegicus, H9c2, Myocardium;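 further: confirmatory concentration-response retest of ultra-high-throughput screening hits for modulation of myocardial damage; cell death induced by hydrogen peroxide oxidative stress; compound pretreatment for 60 min then peroxide exposure for 2 h; potency is for protecting the cells against peroxide damage rather than for killing them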
Genome polyprotein = Genome polyprotein (Hepatitis C virus, UniProt Q2Q167); test: HCV core protein dimerization inhibitors, dose response, biochemical, TR-FRET (AID 2159); set-up: species or system Hepacivirus hominis;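 further: blocks dimerization of HCV core protein measured by TR-FRET between tagged core106 pairs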
Sequence of Genome polyprotein (Q2Q167 whole entry): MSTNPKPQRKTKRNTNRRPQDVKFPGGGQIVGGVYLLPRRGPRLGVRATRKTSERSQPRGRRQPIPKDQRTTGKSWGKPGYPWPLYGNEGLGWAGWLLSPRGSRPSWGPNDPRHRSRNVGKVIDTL

With Clc1ccc(CSc2nc[nH]n2)cc1 the IC50 [1] was > 100 µM (active).
With Cc1ccc2oc(=O)c(/C=C(\O)c3cccs3)nc2c1 the EC50 [2] was 13.1 µM (active), the EC50 [3] was 21.3 µM (inconclusive) and the EC50 [4] was 16.6 µM (active). The EC50 [5] was 6.82 µM (inconclusive), the IC50 [6] was 5.05 µM (active) and the EC50 [7] was 4.87 µM (active). For the same compound, the EC50 (H4) was 16.5 µM (active).
For Cc1ccc2[nH]c(=O)c(C(=O)/C=C/c3ccccc3Cl)c(-c3ccccc3)c2c1, the EC50 (HEK293 [8]) was 2.6 µM (active), the EC50 (HEK293 [9]) was 1.17 µM (active) and the EC50 [10] was > 8 µM (not active). The EC50 (HEK293 [11]) was 5.72 µM (inactive).
For COc1cc2c(cc1NC(=O)CC1SC(N3CCCC3)=NC1=O)oc1ccccc12 (stereo not given), the CC50 [12] was > 40 µM (active).
For COc1ccc2oc(C(=O)Nc3ccc(N4CCOCC4)cc3)c(C)c2c1, the IC50 (H9c2) was > 79 µM (inactive) and the IC50 (Genome polyprotein) was > 49.8 µM (not active).
